From patent US11918582B2 (RAPT Therapeutics, Inc., priority 2021, dated 2024)
Counter-ions that a name gives are not always drawn.

Biological target: T1, human HPK1 (MAP4K1) (Homo sapiens, UniProt Q92918)
T1 construct: Recombinant human HPK1 kinase domain was obtained from ThermoFisher (Cat. #PV6357) and SignalChem (Cat. #M23-11G); purchased ThermoFisher; SignalChem PV6357; M23-11G
T1 sequence (Q92918 17-274 limits assumed): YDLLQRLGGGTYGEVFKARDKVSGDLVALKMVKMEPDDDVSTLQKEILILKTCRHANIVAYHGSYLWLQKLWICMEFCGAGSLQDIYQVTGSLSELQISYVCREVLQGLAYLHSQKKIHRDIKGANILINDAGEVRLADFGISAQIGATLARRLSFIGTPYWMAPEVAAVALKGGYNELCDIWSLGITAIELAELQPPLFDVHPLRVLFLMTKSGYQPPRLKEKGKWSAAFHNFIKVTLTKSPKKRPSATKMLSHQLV
Test: Biochemical assay for activity against HPK1 (ADP-Glo, MBP substrate)
Details: recombinant human HPK1 kinase domain, 1 nM enzyme, ADP-Glo luminescence
In short: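 IC50s come from ADP-Glo luminescence after a 2 h room-temperature reaction phosphorylating MBP in the presence of ATP. Compound was first preincubated 15 min with 1 nM HPK1 kinase domain, human recombinant. Buffer: 50 mM HEPES pH 7.5, 150 mM NaCl, 3 mM TCEP, 10 mM MgCl2, 0.005% Tween-20, 0.01% BSA.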

Row | Compound | IC50
1 | COc1cc2c(cc1Nc1ncc3cnn(C4CC(CO)(CO)C4)c3n1)CN(C)CC2 [Example 77, [1-(hydroxymethyl)-3-[6-[(6-methoxy-2-methyl-3,4-dihydro-1H-isoquinolin-7-yl)amino]pyrazolo[3,4-d]pyrimidin-1-yl]cyclobutyl]dimethanol] | < 100 nM
2 | COc1cc2c(cc1Nc1ncc3c(C)nn([C@H]4CC[C@H](CO)CC4)c3n1)CN(C)CC2 [Example 68, trans-[4-[6-[(6-methoxy-2-methyl-3,4-dihydro-1H-isoquinolin-7-yl)amino]-3-methyl-pyrazolo[3,4-d]pyrimidin-1-yl]cyclohexyl]methanol] | < 100 nM
3 | COc1cc2c(cc1Nc1ncc3cnn([C@@H]4CC[C@H]5CN(C(C)=O)[C@H]54)c3n1)CN(C)CC2 [Example 209, 1-((1S,4R,5R)-4-(6-((6-methoxy-2-methyl-1,2,3,4-tetrahydroisoquinolin-7-yl)amino)-1H-pyrazolo[3,4-d]pyrimidin-1-yl)-6-azabicyclo[3.2.0]heptan-6-yl)ethan-1-one] | < 100 nM
4 | COc1cc2c(cc1Nc1ncc3cnn(C4CC5(CCN(S(C)(=O)=O)CC5)C4)c3n1)CN(C)CC2 [Example 82, 6-methoxy-2-methyl-N-[1-(7-methylsulfonyl-7-azaspiro[3.5]nonan-2-yl)pyrazolo[3,4-d]pyrimidin-6-yl]-3,4-dihydro-1H-isoquinolin-7-amine] | < 100 nM
5 | CO[C@H]1CC[C@@H](n2ncc3cnc(Nc4ccc5c(c4)CN(C)CC5)nc32)CC1 [Example 36, N-(1-((cis)-4-methoxycyclohexyl)-1H-pyrazolo[3,4-d]pyrimidin-6-yl)-2-methyl-1,2,3,4-tetrahydroisoquinolin-7-amine] | < 100 nM
6 | COc1cc2c(cc1Nc1ncc3cnn(CCCO)c3n1)CN(C)CC2 [Example 96, 3-[6-[(6-methoxy-2-methyl-3,4-dihydro-1H-isoquinolin-7-yl)amino]pyrazolo[3,4-d]pyrimidin-1-yl]propan-1-ol] | < 100 nM

Continued, values first:

Row | IC50 | Compound
7 | < 100 nM | COc1cc2c(cc1Nc1ncc3cnn(CC4CCCCO4)c3n1)CN(C)CC2 (racemic) [Example 201, (S)-6-methoxy-2-methyl-N-(1-((tetrahydro-2H-pyran-2-yl)methyl)-1H-pyrazolo[3,4-d]pyrimidin-6-yl)-1,2,3,4-tetrahydroisoquinolin-7-amine and (R)-6-methoxy-2-methyl-N-(1-((tetrahydro-2H-pyran-2-ylmethyl)-1H-pyrazolo[3,4-d]pyrimidin-6-yl)-1,2,3,4-tetrahydroisoquinolin-7-amine Hydrochloride, Racemic Mixture]
8 | < 100 nM | COc1cc2c(cc1Nc1ncc3cnn(C[C@H]4CCCN(C(C)=O)C4)c3n1)CN(C)CC2 [Example 142, I-[(3S)-3-[[6-[(6-methoxy-2-methyl-3,4-dihydro-1H-isoquinolin-7-yl)amino]pyrazolo[3,4-d]pyrimidin-1-yl]methyl]-1-piperidyl]ethan-1-one]
9 | < 100 nM | COc1cc2c(cc1Nc1ncc3cnn(C[C@@H]4CCCN(S(C)(=O)=O)C4)c3n1)CN(C)CC2 [Example 141, 6-methoxy-2-methyl-N-[1-[[(3S)-1-methylsulfonyl-3-piperidyl]methyl]pyrazolo[3,4-d]pyrimidin-6-yl]-3,4-dihydro-1H-isoquinolin-7-amine]
10 | < 100 nM | COc1cc2c(cc1Nc1ncc3cnn(C[C@H]4CCC[C@@H]4C(=O)O)c3n1)CN(C)CC2 [Example 158, (1S,2S)-2-[[6-[(6-methoxy-2-methyl-3,4-dihydro-1H-isoquinolin-7-yl)amino]pyrazolo[3,4-d]pyrimidin-1-yl]methyl]cyclopentanecarboxylic Acid]
11 | < 100 nM | COc1cc2c(cc1Nc1ncc3cnn(C[C@@H]4CCCC[C@@H]4CO)c3n1)CN(C)CC2 (racemic) [Example 166, [rac-cis-2-[[6-[(6-methoxy-2-methyl-3,4-dihydro-1H-isoquinolin-7-yl)amino]pyrazolo[3,4-d]pyrimidin-1-yl]methyl]cyclohexyl]methanol]
